Data reported in patent US20110151484A1, “hERG MUTANTS AND USES THEREOF” (priority 2008, published 2011).
Where two headings read alike, the source gives them in different places.

Key:
[1] = biological target: WT-hERG (Homo sapiens, UniProt Q12809)
Description: (§1) CHO cells were cultured in D-ME/F12 with 10% FBS and maintained at 37° C. in 5% CO2. Cells were studied at least 24 h after being plated on microscope coverslips. Mutant hERG constructs were generated using the Megaprimer PCR method. […] Blank CHO cells were plated onto sterilised glass coverslips. After 24 h, the cells were transfected with mutant hERG constructs using PolyFect Transfection Reagent (Qiagen) according to the manufacturer's instructions. After transfection, the cells were incubated at 37° C. for a minimum of 1 day prior to electrophysiological study. Successfully transfected cells, identified by the expression of eGFP, were studied using the whole-cell configuration of the patch clamp technique.
(§2) Borosilicate glass tubing patch pipettes, with resistances of 1-4 MΩ when filled with internal solution, were made using a vertical 2-stage puller (PP-830; Narishige, Japan). The internal solution contained (in mM) 120 potassium gluconate, 20 KCl, 1.5 MgATP, 5 EGTA and 10 HEPES (pH 7.3 with KOH). […] Currents were amplified (Axopatch 200B amplifier; Molecular Devices, Sunnyvale, Calif.) and digitised (DigiData 1200; Molecular Devices) before storage on a personal computer. Capacitance current transients were electronically subtracted, and series resistance compensation was ˜80% for all experiments. Current signals were digitised at 5 kHz and low-pass filtered at 2 KHz. Some current traces were leak-subtracted off-line. Acquisition was performed using pClamp software.
(§3) Currents were measured with a two-step voltage protocol; a first step to +20 mV for 3 seconds to fully activate the channels and a second step to a negative membrane potential, usually −110 mV (but see below for variations). During this second voltage step hERG channels quickly recover from inactivation and proceed to deactivate.
(§4) Drug block was calculated as I[drug]/Icontrol, with all currents measured at the end of the activating step. […] In this way current was measured at the same time point for all cells.
(§5) Voltage-protocols were repeated at 0.1 Hz. Control currents were recorded 3-5 minutes after patch rupture, i.e. the time take for current levels to stabilise at a steady state level. […] Recording continued until a new steady state block was reached (typically 2-4 minutes). Between 2 and 4 doses of drug were applied to each cell with most experiments completed within 20 minutes.
(§6) Initial data analysis was performed using the Clampfit module of the pClamp 9.0 software. Subsequent data analysis and preparation of data for figures were performed with Mathematica 6 (Wolfram Technologies). All data are expressed as mean ±SEM (n) and statistical significance (P<0.05) was determined using paired t-tests.

[2] = biological target: N588E-hERG (Homo sapiens, UniProt Q12809, N588E)
Description: as §1, §2, §3, §4, §5, §6

[3] = biological target: N588K-hERG (Homo sapiens, UniProt Q12809, N588K)
Description: Currents were measured with a two-step voltage protocol; a first step to +20 mV for 3 seconds to fully activate the channels and a second step to a negative membrane potential, usually −110 mV (but see below for variations). […]

| Compound | IC50 [1] [µM] | h (Hill plot), WT-hERG [1] | IC50 [2] [µM] | h (Hill plot), N588E [2] | IC50 [3] [µM] | h (Hill plot), WT-hERG ([1]; human) | h (Hill plot), N588E ([2]; human) |
| --- | --- | --- | --- | --- | --- | --- | --- |
| CC(C)NCC(O)c1ccc(NS(C)(=O)=O)cc1 (racemic) [dl-Sotalol] | 516 ± 35.5 | h = 0.9 | 586 ± 179 | h = 0.8 | 1390 ± 266 | – | – |
| COc1cc(N)c(Cl)cc1C(=O)NC1CCN(CCCOc2ccc(F)cc2)CC1OC (stereo not drawn) [Cisapride] | – | – | – | – | – | h = 1.0 | h = 0.8 |
| C1CCC(C(CC2CCCCN2)C2CCCCC2)CC1 (stereo not drawn) [Perhexiline] | – | – | – | – | – | h = 1.1 | h = 0.8 |
